From patent publication US11154527B2, “Dermatophytosis prophylaxis and treatment” (The Children's Mercy Hospital, priority 2015, dated 2021)
Counter-ions that a name gives are not always drawn. Like-named read-outs stand apart in the source and are kept apart here. One block for each compound: values may come before it.

What was measured:
T. mentagrophytes = assay: MIC testing against different Trichophyton species: T. mentagrophytes; type: cell-based
Description: (§1) Materials Used: • 10 mm×100 mm petri plate of dermatophyte culture grown to confluency (>14 days) on Sabouraud's dextrose agar (Becton Dickinson, Sparks Md.) containing 50 mg/L chloramphenicol and 500 mg/L cycloheximide (Sigma Chemical Company, St. Louis Mo.) (see appendix A for recipe). • 1× sterile Phosphate Buffered Saline (Sigma Chemical Company, St. Louis Mo.). • (2) 15 mL sterile disposable conical tubes (Thermo Fisher Scientific, Rochester N.Y.). • Disposable sterile inoculating loop (Fisher Scientific, Hanover Park Ill.). • Disposable sterile transfer pipette (Fisher Scientific, Hanover Park Ill.). • Sterilized 2″×2″ 4 ply gauze (Medline Industries, Mundelein Ill.) • 30 mL sterile disposable syringe (Becton Dickinson, Franklin Lakes N.J.). • Hemocytometer (Fisher Scientific, Hanover Park Ill.). […]

[1] = tested on: reference strain of T. tonsurans; assay: Preliminary screening of 7,676 compounds (384 well format), growth read at 600 nm; type: cell-based, Trichophyton tonsurans; details: preliminary screen
Description: (§2) Materials Used: • 10 mm×100 mm petri plate of dermatophyte culture grown to confluency (>14 days) on Sabouraud's dextrose agar (Becton Dickinson, Sparks Md.) containing 50 mg/L chloramphenicol and 500 mg/L cycloheximide (Sigma Chemical Company, St. Louis Mo.) (see appendix A for recipe). • 1× sterile Phosphate Buffered Saline (Sigma Chemical Company, St. Louis Mo.). • (2) 15 mL sterile disposable conical tubes (Thermo Fisher Scientific, Rochester N.Y.). • Disposable sterile inoculating loop (Fisher Scientific, Hanover Park Ill.). • Disposable sterile transfer pipette (Fisher Scientific, Hanover Park Ill.). • Sterilized 2″×2″ 4 ply gauze (Medline Industries, Mundelein Ill.) • 30 mL sterile disposable syringe (Becton Dickinson, Franklin Lakes N.J.). • Hemocytometer (Fisher Scientific, Hanover Park Ill.).
(§3) Spore Prep Procedure (performed aseptically in a biosafety cabinet): • The fungal plate was flooded with 10 mL of sterile 1×PBS and with a sterile disposable inoculating loop, then the surface was gently scraped until all the fungal material (hyphae and spores) was liberated into the PBS. • Using a disposable transfer pipette, the entire volume of PBS/spores was transferred from the plate into a sterile 15 mL conical tube. • Next, 2 mL of sterile 1×PBS was added to the plate and swirled to rinse. • Using the transfer pipette, the remaining volume of PBS/spores was transferred from the plate to the 15 mL conical. • Then, the 15 mL tube was capped and vortexed at max speed for 10-15 seconds, set aside. • The plunger from the 30 mL syringe was then removed and the barrel was packed with 1 square of sterile 2″×2″ gauze. • Using the plunger, the gauze was firmly packed at the bottom of the barrel then the plunger was removed. • The syringe barrel was placed into a new sterile 15 mL conical tube and the entire contents of the 15 mL PBS/spore suspension was poured directly onto the gauze in the syringe barrel. • The plunger was then gently inserted into the barrel and depressed all the way down to filter the spore/hyphal suspension through the gauze. • The plunger was gently removed and additional 2 mL of sterile PBS was added back to the original 15 mL conical tube.
Screening (384 well format):
Note: final concentration of DMSO was not to exceed 0.5%.
NOTE: there was residual spore suspension, the calculations above allowed for overage to ensure enough suspension is made for each plate. • Using the peristaltic pump, the automated dispenser was programmed to deliver 35 μL of 2×SabDEX broth to each well in the 384 well plate. The pump was then purged of growth media and re-primed with the spore suspension. The dispenser was then programmed to deliver 35 μL of spore suspension to each test well (to include+growth controls). • Negative growth controls were made by manually pipetting 35 μL of sterile 1×PBS from a sterile multi-channel boat into each (−) control well using a 100 μL pipette. • Each plate was given a numerical designation, dated, sealed with an EDGE® seal and placed in a 32° C. incubator for 48 hours. • After incubation, the seal was carefully removed and the plate read at 600 nm using a single point read on a microplate reader. • If more time was required, the plate was re-sealed and incubated an additional 24 hours.

T. rubrum = assay: MIC testing against different Trichophyton species: T. rubrum; type: cell-based
Description: as §1

[2] = tested on: reference strain of T. tonsurans; assay: MIC / dose-response testing against reference strain of T. tonsurans; type: cell-based, Trichophyton tonsurans
Description: as §2, §3
(§4) MIC Testing (96 well format):
(§5) To Make the Spore Suspension:
(§6) • A 2 mM stock of the compound to be tested was made in 100% DMSO in a sterile 1.5 mL microfuge tube. • Vortexed the tube vigorously for 1 minute, then protected the compound from light and rocked or shook for 1 hour at room temperature to fully dissolve. • NOTE: Because the 2× culture media was diluted with an equal volume of spore/PBS solution to achieve a 1× final media concentration, the high standard for the range of compound to be tested was made at 2× the highest concentration desired and contain a final DMSO concentration of 0.5%.
(§7) To generate the range of compound to be tested, the following dilution protocol was performed:
(§8) (a) The high standard was made:
(§9) The result was 1000 μL of a 20 μM stock in 2× Culture Medium with a final [DMSO] of 1%.
(§10) (b) The drug dilution range to be tested was made by serially diluting the high standard 1:1 with 2× Culture Medium/1% DMSO.
(§11) Aseptically added 100 μL of the drug/media manually to each well according to the plate map in FIG. 2, as follows: […]

[3] = tested on: 5 genetically distinct strain of T. tonsurans; assay: MIC testing against 5 genetically distinct strains of T. tonsurans; type: cell-based; details: Trichophyton tonsurans
Description: as §2, §3, §4, §5, §6, §7, §8, §9, §10, §11

T. equinum = assay: MIC testing against different Trichophyton species: T. equinum; type: cell-based
Description: as §1

[4] = Trichophyton tonsurans, dose response (DR plate), reference strain of T. tonsurans, read-out: rMIC50
[5] = Trichophyton tonsurans, range, reference strain of T. tonsurans (Table 2), read-out: IC50 [range]
[6] = Trichophyton tonsurans, reference strain of T. tonsurans (Table 2), read-out: IC50
[7] = dose response (DR plate), reference strain of T. tonsurans
[8] = dose response (DR plate), reference strain of T. tonsurans, read-out: rMIC50

Compound: COCc1c(C(C)C)nc(C(C)C)c(/C=C/[C@@H](O)C[C@@H](O)CC(=O)O)c1-c1ccc(F)cc1 [Cerivastatin]
IC50 (T. mentagrophytes): 19 nM
Prelim H ratio [1]: 1.06
Prelim L ratio [1]: 2.28
IC50 (T. rubrum): 68 nM
IC50 [2, 4]: < 10 nM
IC50 [2, 5]: 3 to 58 nM
IC50 [2, 6]: 10 nM
IC50 ([3]; T. tonsurans strain 0924-0254): 3 nM
IC50 ([3]; T. tonsurans strain 0924-1093): 5 nM
IC50 ([3]; T. tonsurans strain 0924-1456): 15 nM
IC50 ([3]; T. tonsurans strain 0924-1669): 5 nM
IC50 ([3]; T. tonsurans strain 1119-0616): 10 nM
IC50 (T. equinum): 21 nM

Compound: N#Cc1c(Cl)c(Cl)c(Cl)c(C#N)c1Cl [Tetrachloroisophthalonitrile]
Prelim H ratio [1]: 1.10
Prelim L ratio [1]: 2.21
IC50 [2, 4]: 73 nM

Compound: C[CH2][Hg][S]c1ccccc1C(=O)[O-].[Na+] [Thimerosal]
Prelim H ratio [1]: 1.03
Prelim L ratio [1]: 2.03
upper asymptote [2, 7]: 90.4
IC50 [2, 8]: 17 nM

Compound: CCCCCCCCCCCCCCCC[N+](C)(C)CCN(Cc1ccc(OC)cc1)c1ncccn1 [Thonzonium bromide]
Prelim H ratio [1]: 1.06
Prelim L ratio [1]: 2.11
IC50 [2, 4]: 637 nM

Compound: C[C@H]1CC[C@]2(NC1)O[C@H]1C[C@H]3[C@@H]4CC[C@H]5C[C@@H](O)CC[C@]5(C)[C@H]4CC[C@]3(C)[C@H]1[C@@H]2C [Tomatidine HCl]
Prelim H ratio [1]: 0.45
Prelim L ratio [1]: 0.92
IC50 [2, 4]: 486 nM

Compound: Oc1cc(Cl)ccc1Oc1ccc(Cl)cc1Cl [Triclosan]
Prelim H ratio [1]: 1.04
Prelim L ratio [1]: 2.08
IC50 [2, 4]: 656 nM

Compound: Bleomycin
Prelim H ratio [1]: 0.40
Prelim L ratio [1]: 0.74
upper asymptote [2, 7]: 93.1
IC50 [2, 8]: 263 nM

Further lines, with some results ahead:

IC50 [2, 4]: 18 nM
Compound: Clc1ccc(C(Cn2ccnc2)OCc2ccsc2Cl)c(Cl)c1 (stereo not drawn) [Tioconazole]
Prelim H ratio [1]: 1.03
Prelim L ratio [1]: 2.02

IC50 [2, 4]: 13 nM
Compound: Cc1cccc(N(C)C(=S)Oc2ccc3ccccc3c2)c1 [Tolnaftate]
Prelim H ratio [1]: 1.01
Prelim L ratio [1]: 1.99

IC50 [2, 4]: 212 nM
Compound: CSc1nc2cc(Cl)c(Oc3cccc(Cl)c3Cl)cc2[nH]1 [Triclabendazole]
Prelim H ratio [1]: 1.07
Prelim L ratio [1]: 2.14

IC50 [2, 4]: 84 nM
Compound: C[C@@H](c1ncncc1F)[C@](O)(Cn1cncn1)c1ccc(F)cc1F [Voriconazole]
Prelim H ratio [1]: 1.00
Prelim L ratio [1]: 1.85

IC50 [2, 4]: 650 nM
IC50 [2, 6]: 650 nM
Compound: CC[C@H](C)C(=O)O[C@H]1CCC=C2C=C[C@H](C)[C@H](CC[C@@H]3C[C@@H](O)CC(=O)O3)[C@H]21 [mevastatin]
Prelim H ratio [1]: 0.45
Prelim L ratio [1]: 0.86

IC50 (T. mentagrophytes): 35 nM
IC50 (T. rubrum): 147 nM
IC50 [2, 5]: 3 to 32 nM
IC50 [2, 6]: 30 nM
IC50 ([3]; T. tonsurans strain 0924-0254): 3 nM
IC50 ([3]; T. tonsurans strain 0924-1093): 18 nM
IC50 ([3]; T. tonsurans strain 0924-1456): 24 nM
IC50 ([3]; T. tonsurans strain 0924-1669): 25 nM
IC50 ([3]; T. tonsurans strain 1119-0616): 27 nM
IC50 (T. equinum): 54 nM
Compound: O=C(O)C[C@H](O)C[C@H](O)/C=C/c1c(C2CC2)nc2ccccc2c1-c1ccc(F)cc1 [pitavastatin]

IC50 (T. mentagrophytes): 71 nM
IC50 (T. rubrum): 303 nM
IC50 [2, 5]: 24 to 62 nM
IC50 [2, 6]: 30 nM
IC50 ([3]; T. tonsurans strain 0924-0254): 29 nM
IC50 ([3]; T. tonsurans strain 0924-1093): 50 nM
IC50 ([3]; T. tonsurans strain 0924-1456): 52 nM
IC50 ([3]; T. tonsurans strain 0924-1669): 52 nM
IC50 ([3]; T. tonsurans strain 1119-0616): 62 nM
IC50 (T. equinum): 86 nM
Compound: CCC(C)(C)C(=O)O[C@H]1C[C@@H](C)C=C2C=C[C@H](C)[C@H](CC[C@@H](O)C[C@@H](O)CC(=O)O)[C@H]21 [simvistatin acid]
